Assay [1] concerns the target T1, PDCD11 Protein RRP5 homolog (Homo sapiens, UniProt Q14690).
T1 construct: Cells were resuspended in cold PBS on ice and sonicated with a probe sonicator to achieve lysis; endogenous in cells
The assay is described as follows: Cysteine liganding, probe competition. It counts as binding. The method, boiled down:
(§1)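 Probe competition in native proteome: 5 mg/ml lysate, compound 1 hr 25° C, then desthiobiotin iodoacetamide (10 mM stock) 1 hr 25° C; acetone ppt, urea/DTT reduction, iodoacetamide alkylation, trypsin, streptavidin pull-down.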

In assay [2] the target is T2, HERC5 E3 ISG15--protein ligase HERC5 (Homo sapiens, UniProt Q9UII4).
T2 construct: Cells were resuspended in cold PBS on ice and sonicated with a probe sonicator to achieve lysis; endogenous in cells
T2 sequence (Q9UII4 1-1024): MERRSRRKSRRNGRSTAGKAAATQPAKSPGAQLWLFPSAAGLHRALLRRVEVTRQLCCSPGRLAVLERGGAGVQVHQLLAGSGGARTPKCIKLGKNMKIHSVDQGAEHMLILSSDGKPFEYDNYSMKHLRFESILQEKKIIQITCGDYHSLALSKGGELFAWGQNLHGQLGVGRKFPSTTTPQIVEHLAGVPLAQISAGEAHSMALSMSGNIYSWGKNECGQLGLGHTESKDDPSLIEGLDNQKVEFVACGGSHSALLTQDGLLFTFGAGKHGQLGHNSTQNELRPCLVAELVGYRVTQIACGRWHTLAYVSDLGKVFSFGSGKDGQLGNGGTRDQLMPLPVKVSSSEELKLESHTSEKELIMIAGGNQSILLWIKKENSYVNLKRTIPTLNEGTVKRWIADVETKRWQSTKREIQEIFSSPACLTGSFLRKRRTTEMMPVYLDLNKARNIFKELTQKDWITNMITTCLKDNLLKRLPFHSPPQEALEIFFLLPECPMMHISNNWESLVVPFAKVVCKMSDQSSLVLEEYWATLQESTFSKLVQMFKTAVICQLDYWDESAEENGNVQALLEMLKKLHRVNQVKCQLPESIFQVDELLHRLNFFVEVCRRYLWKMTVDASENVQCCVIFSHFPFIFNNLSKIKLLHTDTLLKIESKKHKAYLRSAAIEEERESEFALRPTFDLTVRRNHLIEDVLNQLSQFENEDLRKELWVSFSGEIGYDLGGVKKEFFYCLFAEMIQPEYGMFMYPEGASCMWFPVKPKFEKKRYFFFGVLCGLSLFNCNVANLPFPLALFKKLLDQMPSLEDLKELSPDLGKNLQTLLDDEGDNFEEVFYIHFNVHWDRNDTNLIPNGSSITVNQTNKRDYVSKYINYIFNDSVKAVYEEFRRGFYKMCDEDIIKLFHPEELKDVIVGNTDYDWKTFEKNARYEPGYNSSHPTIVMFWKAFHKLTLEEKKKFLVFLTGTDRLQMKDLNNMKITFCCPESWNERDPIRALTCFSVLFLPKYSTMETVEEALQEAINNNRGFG
Briefly: Cysteine liganding, probe competition. It counts as binding. Conditions: for Liganded: HERC5 Res# 994, uniprot Q9UII4. The method, boiled down:
as §1

Structures are written as SMILES.

T1 sequence (Q14690 whole entry): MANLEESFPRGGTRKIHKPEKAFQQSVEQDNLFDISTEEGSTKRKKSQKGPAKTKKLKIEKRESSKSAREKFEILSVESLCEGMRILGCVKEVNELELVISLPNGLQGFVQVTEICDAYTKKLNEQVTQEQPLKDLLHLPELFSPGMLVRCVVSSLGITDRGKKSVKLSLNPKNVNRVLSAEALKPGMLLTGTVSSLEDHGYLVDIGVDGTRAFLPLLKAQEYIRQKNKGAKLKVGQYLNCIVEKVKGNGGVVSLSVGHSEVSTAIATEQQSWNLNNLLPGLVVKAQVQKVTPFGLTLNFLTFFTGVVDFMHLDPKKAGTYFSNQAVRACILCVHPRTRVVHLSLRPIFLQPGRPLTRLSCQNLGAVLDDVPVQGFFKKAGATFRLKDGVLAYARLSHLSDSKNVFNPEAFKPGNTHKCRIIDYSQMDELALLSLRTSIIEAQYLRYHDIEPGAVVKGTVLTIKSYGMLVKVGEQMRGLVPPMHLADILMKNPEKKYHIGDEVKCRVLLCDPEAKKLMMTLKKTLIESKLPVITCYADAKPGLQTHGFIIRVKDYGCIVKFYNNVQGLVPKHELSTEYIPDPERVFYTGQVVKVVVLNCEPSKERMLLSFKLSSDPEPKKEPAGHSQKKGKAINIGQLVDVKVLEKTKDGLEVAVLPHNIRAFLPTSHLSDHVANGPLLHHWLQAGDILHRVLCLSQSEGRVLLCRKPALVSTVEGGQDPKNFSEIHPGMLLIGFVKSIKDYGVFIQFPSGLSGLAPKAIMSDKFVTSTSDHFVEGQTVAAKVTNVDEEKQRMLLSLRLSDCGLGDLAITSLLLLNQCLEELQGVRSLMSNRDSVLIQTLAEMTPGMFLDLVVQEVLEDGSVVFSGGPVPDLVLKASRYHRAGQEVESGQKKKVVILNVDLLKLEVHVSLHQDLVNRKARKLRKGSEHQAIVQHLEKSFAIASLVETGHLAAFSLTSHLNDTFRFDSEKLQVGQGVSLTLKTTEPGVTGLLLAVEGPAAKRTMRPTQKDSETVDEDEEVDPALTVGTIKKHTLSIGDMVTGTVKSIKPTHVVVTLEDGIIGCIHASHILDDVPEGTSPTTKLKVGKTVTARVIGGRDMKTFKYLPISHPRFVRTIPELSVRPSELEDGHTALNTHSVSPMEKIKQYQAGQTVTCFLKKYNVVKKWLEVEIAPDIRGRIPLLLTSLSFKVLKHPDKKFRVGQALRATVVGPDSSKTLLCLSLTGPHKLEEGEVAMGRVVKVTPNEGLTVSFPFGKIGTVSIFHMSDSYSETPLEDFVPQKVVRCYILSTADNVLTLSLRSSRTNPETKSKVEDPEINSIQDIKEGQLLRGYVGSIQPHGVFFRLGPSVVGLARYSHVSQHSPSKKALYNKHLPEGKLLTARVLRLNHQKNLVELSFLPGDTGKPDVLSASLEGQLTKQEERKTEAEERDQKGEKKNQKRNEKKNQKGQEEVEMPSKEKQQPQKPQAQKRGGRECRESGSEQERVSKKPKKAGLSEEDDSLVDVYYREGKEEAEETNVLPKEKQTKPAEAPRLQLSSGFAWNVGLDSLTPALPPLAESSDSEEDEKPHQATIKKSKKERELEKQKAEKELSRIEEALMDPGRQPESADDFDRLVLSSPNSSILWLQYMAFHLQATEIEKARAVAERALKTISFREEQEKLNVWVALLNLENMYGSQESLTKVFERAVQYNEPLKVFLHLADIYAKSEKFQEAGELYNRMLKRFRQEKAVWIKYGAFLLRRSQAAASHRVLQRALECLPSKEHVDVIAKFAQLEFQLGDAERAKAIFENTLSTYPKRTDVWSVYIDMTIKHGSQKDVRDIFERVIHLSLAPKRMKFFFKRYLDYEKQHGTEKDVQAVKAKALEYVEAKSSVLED

As to `COc1ccc2c(c1)CCCN2C(=O)CCl` [KB02], the Liganded result is recorded as “YES” in assay [1] (PDCD11 Res# 361, uniprot Q14690) and “YES” in assay [2].
For the molecule `O=C(CCl)Nc1cc(C(F)(F)F)cc(C(F)(F)F)c1` [KBO3], in assay [1] (uniprot Q14690), the “100 Max” value came out at 19.85, the 100 ave is recorded as 3.78 and the 500 ave is listed as 46.645. Also, the “500 Max” value in assay [1] (uniprot Q14690, in % (unit assumed)) came out at 49.26. Further, the Liganded entry in assay [2] is “YES”. For the same molecule, in assay [2] (uniprot Q9UII4), the “100 Max” value came out at 83.4, the 100 ave was 83.4, the “500 Max” value was 96.8 and the 500 ave turned out to be 96.8.

The values above are taken from patent US20200239530A1, “COMPOUNDS AND METHODS OF MODULATING PROTEIN DEGRADATION” (Vividion Therapeutics, Inc., priority 2017, published 2020).
